This assay addresses T1, STK24 (MST3) (Homo sapiens, UniProt Q9Y6E0).
T1 construct: purchased Thermo Fisher Scientific (Life Technologies) SelectScreen
The experiment in a line: SelectScreen Z'LYTE. Format: biochemical. The gist of the method: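 NU5455 was profiled across the SelectScreen Broad panel of kinase activity and binding assays. Z'LYTE reactions such as CSF1R ran at apparent Km ATP, while the Adapta CAMK1 assay used ATP listed as 10. Values are given as percent.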

Molecules are shown by their SMILES.

T1 sequence (Q9Y6E0 whole entry): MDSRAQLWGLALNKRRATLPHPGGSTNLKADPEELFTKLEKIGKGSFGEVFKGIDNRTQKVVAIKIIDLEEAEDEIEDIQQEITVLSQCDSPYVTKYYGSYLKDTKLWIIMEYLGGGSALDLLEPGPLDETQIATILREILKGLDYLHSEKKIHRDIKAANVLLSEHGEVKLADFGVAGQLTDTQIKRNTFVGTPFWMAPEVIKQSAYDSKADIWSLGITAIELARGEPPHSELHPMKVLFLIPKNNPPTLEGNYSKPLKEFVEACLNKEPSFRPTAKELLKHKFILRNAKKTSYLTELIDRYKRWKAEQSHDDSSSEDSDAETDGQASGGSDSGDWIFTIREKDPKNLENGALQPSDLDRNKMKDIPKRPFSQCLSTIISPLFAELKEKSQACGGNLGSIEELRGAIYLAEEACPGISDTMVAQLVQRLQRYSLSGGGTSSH

As for `CN(C(=O)CN1CCOCC1)c1ccc2sc3c(-c4cccc5c(=O)cc(N6CC7CCC(C6)O7)oc45)cccc3c2c1` [NU5455], the inhibition (as a rule, the drop in the measured response relative to a control, in per cent) at 1 µM came out at 4.1%.
